Laboratory results from patent US20250228835A1, “PYRIDINYLOXYPYRIDINES AND RELATED COMPOUNDS AND THEIR USE IN TREATING MEDICAL CONDITIONS” (Rectify Pharmaceuticals, Inc., priority 2024, published 2025).
pEC50: −log10 of the molar value.

Target: T1, ABCD2 WT (Homo sapiens, UniProt Q9UBJ2)
T1 construct: expressed in transfected cells
T1 sequence (Q9UBJ2 1-740): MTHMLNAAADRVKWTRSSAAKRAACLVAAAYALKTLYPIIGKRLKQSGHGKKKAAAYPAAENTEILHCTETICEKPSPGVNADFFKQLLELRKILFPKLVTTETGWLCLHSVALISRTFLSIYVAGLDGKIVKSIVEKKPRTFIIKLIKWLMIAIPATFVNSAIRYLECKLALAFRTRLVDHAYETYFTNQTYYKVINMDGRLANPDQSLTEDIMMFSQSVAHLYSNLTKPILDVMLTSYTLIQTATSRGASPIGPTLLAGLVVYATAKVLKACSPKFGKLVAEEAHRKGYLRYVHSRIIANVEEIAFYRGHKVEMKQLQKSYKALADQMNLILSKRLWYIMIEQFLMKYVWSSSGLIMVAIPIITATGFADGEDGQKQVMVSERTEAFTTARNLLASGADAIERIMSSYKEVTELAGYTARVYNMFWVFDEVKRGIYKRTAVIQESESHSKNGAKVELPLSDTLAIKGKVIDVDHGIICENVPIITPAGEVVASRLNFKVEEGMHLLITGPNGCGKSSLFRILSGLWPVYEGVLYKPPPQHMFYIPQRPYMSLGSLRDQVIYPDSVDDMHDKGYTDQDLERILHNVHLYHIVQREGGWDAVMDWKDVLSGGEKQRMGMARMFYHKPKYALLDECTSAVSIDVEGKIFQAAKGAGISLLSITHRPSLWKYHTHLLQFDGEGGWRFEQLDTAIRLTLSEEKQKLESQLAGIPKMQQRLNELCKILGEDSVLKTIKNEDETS
Test: D2 correction dose-response assay: ABCD2 WT HiBit protein expression
Assay type: cell-based
Conditions: HEK-293/ABCD2 WT cells, 24 hours treatment, HiBit luminescence; class combines EC50 and Mean MaxAct (fold); read-out: ABCD2 WT EC50, Emax
Method in brief: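 HEK-293 cells stably expressing HiBit-tagged human ABCD2 WT were treated with 11 doses (3-fold dilutions, top final 30 μM, 0.3% DMSO) for 24 h at 37 °C. Expression was measured by HiBit lytic luminescence after 1 h at 25 °C, giving EC50 and Emax.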

Row | SMILES | pEC50
1 | Cc1cc(C)c(Oc2nc(-n3cc(C)cn3)ccc2NS(C)(=O)=O)c(C)c1 [Compound I-11] | 5.00 to 6.00
2 | Cc1cc(C)c(Oc2nc(-n3cnc(C)c3)ccc2NS(C)(=O)=O)c(C)c1 [Compound I-12] | > 6.00
3 | Cc1cc(C)c(Oc2nc(-c3cnn(C)c3C)ccc2NS(C)(=O)=O)c(C)c1 [Compound I-13] | < 4.60
4 | Cc1cc(C)c(Oc2nc(-c3cnn(C)c3)ccc2NS(C)(=O)=O)c(C)c1 [Compound I-14] | 5.00 to 6.00
5 | Cc1cc(C)c(Oc2nc(N3CCN(C(=O)C4(C)CC4)CC3)ccc2NS(C)(=O)=O)c(C)c1 [Compound I-15] | < 4.60
6 | COC(=O)N1CCN(c2ccc(NS(C)(=O)=O)c(Oc3c(C)cc(C)cc3C)n2)CC1 [Compound I-16] | 4.60 to 5.00
7 | CC(=O)N1CCN(c2ccc(NS(C)(=O)=O)c(Oc3c(C)cc(C)cc3C)n2)CC1 [Compound I-17] | 5.00 to 6.00
8 | Cc1nc(Oc2nc(-c3cncc(C#N)c3)ccc2NS(C)(=O)=O)c(C)s1 [Compound I-107] | > 6.00
9 | Cc1cc(Oc2nc(-c3cncc(C#N)c3)ccc2NS(C)(=O)=O)nn1C [Compound I-113] | > 4.60
10 | Cc1nn(C)c(C)c1Oc1nc(-c2cncc(C#N)c2)ccc1NS(C)(=O)=O [Compound I-115] | > 6.00
11 | Cc1nc(C2CC2)c(Cl)cc1Oc1nc(-c2cncc(C#N)c2)ccc1NS(C)(=O)=O [Compound I-120] | 5.00 to 6.00
12 | Cc1cc(Oc2nc(-c3cncc(C#N)c3)ccc2NS(C)(=O)=O)c(C)nc1C1CC1 [Compound I-127] | < 4.60
13 | Cc1cc(OC(F)(F)F)nc(C)c1Oc1nc(-c2cncc(C#N)c2)ccc1NS(C)(=O)=O [Compound I-131] | > 6.00
14 | Cc1nc(C)c(Oc2nc(-c3cncc(C#N)c3)ccc2NS(C)(=O)=O)c(C2CC2)n1 [Compound I-165] | 5.00 to 6.00
15 | CNS(=O)(=O)c1ccc(-c2cncc(C#N)c2)nc1Oc1c(C)nc(C(F)(F)F)nc1C [Compound I-167] | 5.00 to 6.00
16 | CNS(=O)(=O)c1ccc(-c2cncc(C#N)c2)nc1Oc1c(C)cc(C(F)(F)F)nc1C [Compound I-168] | 5.00 to 6.00
17 | Cc1nc(N2CC(S(C)(=O)=O)C2)nc(C)c1Oc1nc(-c2cncc(C#N)c2)ccc1NS(C)(=O)=O [Compound I-169] | 4.60 to 5.00
18 | Cc1nc(N2CC(F)(F)C2)nc(C)c1Oc1nc(-c2cncc(C#N)c2)ccc1NS(C)(=O)=O [Compound I-170] | 5.00 to 6.00
19 | Cc1nc(C(F)F)nc(C)c1Oc1nc(-c2cncc(C#N)c2)ccc1NS(C)(=O)=O [Compound I-173] | > 6.00
20 | Cc1nc(C2COC2)nc(C)c1Oc1nc(-c2cncc(C#N)c2)ccc1NS(C)(=O)=O [Compound I-174] | 5.00 to 6.00
21 | Cc1nc(C(F)F)nc(C)c1Oc1nc(-c2cncc(Cl)c2)ccc1NS(C)(=O)=O [Compound I-175] | < 4.60
22 | Cc1cc(C)c(Oc2nc(-c3cncc(C#N)c3)ccc2NS(C)(=O)=O)c(OC2CC2)n1 [Compound I-176] | > 6.00

Row | SMILES | pEC50
23 | Cc1nc(OC2CC2)c(C(F)(F)F)cc1Oc1nc(-c2cncc(C#N)c2)ccc1NS(C)(=O)=O [Compound I-178] | 5.00 to 6.00
24 | Cc1nc(C2CC2)c(C(F)F)cc1Oc1nc(-c2cncc(C#N)c2)ccc1NS(C)(=O)=O [Compound I-179] | > 6.00
25 | Cc1cc(N2CC(F)(F)C2)nc(C)c1Oc1nc(-c2cncc(C#N)c2)ccc1NS(C)(=O)=O [Compound I-180] | < 4.60
26 | Cc1nc(C2CCC2)nc(C)c1Oc1nc(-c2cncc(C#N)c2)ccc1NS(C)(=O)=O [Compound I-181] | < 4.60
27 | Cc1cc(Oc2nc(-c3cncc(C#N)c3)ccc2NS(C)(=O)=O)c(C)nc1C(F)(F)F [Compound I-182] | > 6.00
28 | Cc1nc(C2CC2)nc(C)c1Oc1nc(-c2cncc(C#N)c2)ccc1NS(C)(=O)=O [Compound I-183] | > 6.00
29 | Cc1nc(C2CC2)c(C(F)(F)F)cc1Oc1nc(-c2cncc(C#N)c2)ccc1NS(C)(=O)=O [Compound I-184] | > 6.00
30 | Cc1nc(C)c(Oc2nc(-c3cncc(C(F)(F)F)c3)ccc2NS(C)(=O)=O)c(C)n1 [Compound I-192] | < 4.60
31 | Cc1nc(C)c(Oc2nc(-c3cncc(C4CC4)c3)ccc2NS(C)(=O)=O)c(C)n1 [Compound I-193] | > 6.00
32 | Cc1cc(C(F)F)nc(C)c1Oc1nc(-c2cncc(C3COC3)c2)ccc1NS(C)(=O)=O [Compound I-197] | 5.00 to 6.00
33 | Cc1cc(C(F)(F)F)nc(C)c1Oc1nc(-c2cncc(C3COC3)c2)ccc1NS(C)(=O)=O [Compound I-198] | < 4.60
34 | Cc1cc(C(F)F)nc(C)c1Oc1nc(-c2cncc(C#N)c2)ccc1NS(=O)(=O)C1CC1 [Compound I-199] | 5.00 to 6.00
35 | Cc1nc(C(F)(F)F)nc(C)c1Oc1nc(-c2cncc(C#N)c2)ccc1NS(C)(=O)=O [Compound I-200] | > 6.00
36 | Cc1cc(C(F)F)nc(C)c1Oc1nc(-c2ccnc(C#N)c2)ccc1NS(=O)(=O)C1CC1 [Compound I-203] | > 6.00
37 | Cc1cc(C(F)F)nc(C)c1Oc1nc(-c2ccnc(C#N)c2)ccc1NS(C)(=O)=O [Compound I-204] | > 6.00
38 | Cc1nc(C(F)(F)F)nc(C)c1Oc1nc(-c2cncc(Cl)c2)ccc1NS(C)(=O)=O [Compound I-205] | > 6.00
39 | COC(=O)c1cncc(-c2ccc(NS(C)(=O)=O)c(Oc3cc(C)n(C)n3)n2)c1 [Compound I-206] | < 4.60
40 | Cc1cc(C)c(Oc2nc(-c3ccnc(C#N)c3)ccc2NS(=O)(=O)C2CC2)c(C)n1 [Compound I-211] | > 6.00
41 | Cc1cc(C2CC2)nc(C)c1Oc1nc(-c2ccnc(C#N)c2)ccc1NS(C)(=O)=O [Compound I-213] | < 4.60
42 | CCS(=O)(=O)Nc1ccc(-c2cncc(C#N)c2)nc1Oc1c(C)cc(C(F)(F)F)nc1C [Compound I-217] | > 6.00
43 | Cc1cc(C(F)(F)F)nc(C)c1Oc1nc(-c2cncc(C#N)c2)ccc1NS(=O)(=O)C1CC1 [Compound I-218] | 4.60 to 5.00
44 | Cc1cc(C(F)(F)F)nc(C)c1Oc1nc(-c2ccnc(C#N)c2)ccc1NS(C)(=O)=O [Compound I-219] | > 6.00

Results, then the molecule that gave them:

Row | pEC50 | SMILES
45 | < 4.60 | Cc1cc(C)c(Oc2nc(-c3cncc(S(C)(=N)=O)c3)ccc2NS(C)(=O)=O)c(C)n1 (centres unmarked) [Compound I-116]
46 | > 6.00 | Cc1cc(OC2CC2)nc(C)c1Oc1nc(-c2cncc(C#N)c2)ccc1NS(C)(=O)=O [Compound I-132]
47 | 5.00 to 6.00 | Cc1cc(C)c(Oc2nc(-c3cncc(C#N)c3)ccc2N(C)S(C)(=O)=O)c(C)n1 [Compound I-166]
48 | > 6.00 | Cc1cc(C2CC2)c(Oc2nc(-c3cncc(C#N)c3)ccc2NS(C)(=O)=O)c(C)n1 [Compound I-171]
49 | < 4.60 | Cc1cc(C)c(Oc2nc(-c3cncc(C#N)c3)ccc2NS(=O)(=O)C2(C)CC2)c(C)n1 [Compound I-172]
50 | < 4.60 | Cc1cc(N2CCC2)nc(C)c1Oc1nc(-c2cncc(C#N)c2)ccc1NS(C)(=O)=O [Compound I-177]
51 | > 6.00 | Cc1cc(C)c(Oc2nc(-c3cncc(N4CC(F)C4)c3)ccc2NS(C)(=O)=O)c(C)n1 [Compound I-185]
52 | < 4.60 | Cc1cc(C)c(Oc2nc(-c3ccn(C)c(=O)c3)ccc2NS(C)(=O)=O)c(C)n1 [Compound I-186]
53 | < 4.60 | Cc1cc(C)c(Oc2nc(-c3cc[nH]c(=O)c3)ccc2NS(C)(=O)=O)c(C)n1 [Compound I-187]
54 | 5.00 to 6.00 | COc1cc(-c2ccc(NS(C)(=O)=O)c(Oc3c(C)cc(C)nc3C)n2)ccn1 [Compound I-188]
55 | > 6.00 | Cc1cc(C)c(Oc2nc(-c3cncc(N4CCC4)c3)ccc2NS(C)(=O)=O)c(C)n1 [Compound I-190]
56 | 4.60 to 5.00 | Cc1nc(C)c(Oc2nc(-c3cncc(C(F)F)c3)ccc2NS(C)(=O)=O)c(C)n1 [Compound I-191]
57 | < 4.60 | Cc1cc(C)c(Oc2nc(-c3cncc(C4CN(C)C4)c3)ccc2NS(C)(=O)=O)c(C)n1 [Compound I-194]
58 | < 4.60 | Cc1cc(C)c(Oc2nc(-c3cncc(N4CC(F)(F)C4)c3)ccc2NS(C)(=O)=O)c(C)n1 [Compound I-195]
59 | > 6.00 | COC1CN(c2cncc(-c3ccc(NS(C)(=O)=O)c(Oc4c(C)cc(C)nc4C)n3)c2)C1 [Compound I-196]
60 | 5.00 to 6.00 | Cc1cc(C)c(Oc2nc(-c3cncc(N4CCOCC4)c3)ccc2NS(C)(=O)=O)c(C)n1 [Compound I-201]
61 | < 4.60 | Cc1cc(C(F)F)nc(C)c1Oc1nc(-c2cncc(Cl)c2)ccc1NS(C)(=O)=O [Compound I-202]
62 | < 4.60 | Cc1cc(C2CCC2)nc(C)c1Oc1nc(-c2cncc(C#N)c2)ccc1NS(C)(=O)=O [Compound I-208]
63 | > 6.00 | COc1nc(C)cc(C)c1Oc1nc(-c2cncc(C#N)c2)ccc1NS(C)(=O)=O [Compound I-209]
64 | > 6.00 | C#Cc1cncc(-c2ccc(NS(C)(=O)=O)c(Oc3c(C)cc(C)nc3C)n2)c1 [Compound I-212]
65 | > 6.00 | Cc1cc(C)c(Oc2nc(-c3cncc(C4COC4)c3)ccc2NS(C)(=O)=O)c(C)n1 [Compound I-216]
